Literature values as cited in article PMC3066409 (Diabetic Medicine, 2010).
Counter-ions that a name gives are not always drawn.

Conditions: prescribing information

Row | Structure (SMILES) | Drowsiness
1 | Cc1nccn1CC1CCc2c(c3ccccc3n2C)C1=O (centres unmarked) [ondansetron, ondansetron hydrochloride] | reported adverse effect
2 | CCN(CC)CCNC(=O)c1cc(Cl)c(N)cc1OC [metoclopramide] | reported adverse effect
